Assay results taken from patent US12280022B2, “Method of treating major depressive disorder” (Clexio Biosciences Ltd., priority 2018, dated 2025).

Legend:
[1] = tested on: animal models of depression; conditions: without psychotomimetic side effects and abuse liability; cited from earlier work
[2] = tested on: human peripheral blood lymphocytes (HPBL); conditions: definitive assay; non-activated 4- and 20-hour treatment conditions; any dose
Description: The clastogenic potential of esketamine was evaluated in the in vitro mammalian chromosome aberration test using human peripheral blood lymphocytes (HPBL) in both the absence and presence of an induced metabolic activation system (the 9000 g supernatant [S9] microsomal fraction of liver homogenate from rats exposed to Aroclor-1254).
The study was conducted in 2 phases, with a preliminary toxicity test used to determine the appropriate concentrations for the definitive chromosomal aberration assay. Water was used as a negative (vehicle) control. Toxicity (defined as ≥45% reduction in MI relative to the vehicle control) was evaluated at 9 concentrations, ranging from 0.0238 to 238 μg/ml, after exposure of HPBL to esketamine for 20 hours in the absence of S9 activation, or for 4 hours, either in the presence or absence of S9 activation, followed by a 16-hour recovery period.
The definitive chromosome aberration assay evaluated HPBL cells after exposure to esketamine for 20 hours in the absence of S9 activation, or for 4 hours, either in the presence of absence of S9 activation, followed by a 16-hour recovery. Positive controls for chromosomal aberrations in non-activated and S9-activated evaluations, respectively, consisted of mitomycin C (MMC, 0.6 and 0.3 μg/mL for the 4- and 20-hour exposures, respectively) and cyclophosphamide (CP, 2.5, 5, and 7.5 μg/mL). […]

liver of Crl:CD(SD) rats = experiment: In vivo single cell gel electrophoresis (comet) assay in liver; conditions: male and female rats; oral gavage
[3] = tested on: healthy male and female subjects; experiment: Single dose crossover study in healthy volunteers: treatment-emergent adverse events; type: in vivo, human
Description: A total of 128 TEAEs (treatment-emergent adverse event) were reported by 15 of 16 (94%) subjects of which 79 TEAEs reported by 14 of 16 (88%) subjects were to be related to the study drug. Overall, a total of 14 of 128 TEAEs reported by 4 (25%) subjects were of moderate severity and 114 of 128 TEAEs reported by 15 (94%) subjects were of mild severity. […] The most frequently occurring adverse events (reported more than twice) were headache, dizziness, hypokinesia, feeling abnormal, fatigue, euphoric mood inappropriate affect, nausea and hyperhidrosis. Table 4 presents the frequency of the most frequently reported related TEAEs as a percentage of the subjects that experienced an adverse effect per treatment.

male Sprague Dawley rats = experiment: 7-day forced swim test; type: in vivo; conditions: intraperitoneal
Description: Groups of, 6-7 week old, male Sprague Dawley rats were administered esketamine by intraperitoneal injection and their behavioral despair assessed by a forced swim test. The animals, in cohorts of 10, were administered either a single dose of 15 mg/kg esketamine, 7 daily doses of either 7.5 or 15 mg/kg esketamine or a vehicle control, and the test performed 30 minutes after dosing. Statistical evaluation was performed using an ordinary One-Way ANOVA, t Test and an Uncorrected Fisher's LSD comparisons test.

In the case of `CN[C@@]1(c2ccccc2Cl)CCCCC1=O` [(R)-ketamine, (2R)-2-(2-Chlorophenyl)-2-(methylamino)cyclohexanone], the “antidepressant effects compared with esketamine” value [1] is listed as “greater potency and longer-lasting antidepressant effects”.

In the case of `CN[C@]1(c2ccccc2Cl)CCCCC1=O` [esketamine, (2S)-2-(2-Chlorophenyl)-2-(methylamino)cyclohexanone], the “cytotoxicity (≥45% reduction in mitotic index relative to the vehicle control)” value [2] is reported as “not observed”, the “DNA strand breaks in the liver” value (liver of Crl:CD(SD) rats) is reported as “evidence of causing an increase in DNA strand breaks” and the “Dizziness, related TEAE, subjects” value ([3]; 0.3 mg/kg iv) is reported as 6%. The “Euphoric mood, related TEAE, subjects” value ([3]; 0.3 mg/kg iv) was 19%, the “Fatigue, related TEAE, subjects” value ([3]; 0.3 mg/kg iv) was 6% and the “Feeling abnormal, related TEAE, subjects” value ([3]; 0.3 mg/kg iv) was 13%. For the same molecule, the “Headache, related TEAE, subjects” value ([3]; 0.3 mg/kg iv) was 19%, the “Hypokinesia, related TEAE, subjects” value ([3]; 0.3 mg/kg iv) was 6% and the “Inappropriate affect, related TEAE, subjects” value (from here on “Inappropriate affect”) ([3]; 0.3 mg/kg iv) was 6%. The “Nausea, related TEAE, subjects” value ([3]; 0.3 mg/kg iv) was 6%, the “Feeling abnormal, related TEAE, subjects” value ([3]; 20 mg oral solution) was 19% and the “Headache, related TEAE, subjects” value ([3]; 20 mg oral solution) was 19%. The “Inappropriate affect” value ([3]; 20 mg oral solution) was 6%, the “Dizziness, related TEAE, subjects” value ([3]; 20 mg oral tablet) was 13% and the “Fatigue, related TEAE, subjects” value ([3]; 20 mg oral tablet) was 7%. The “Feeling abnormal, related TEAE, subjects” value ([3]; 20 mg oral tablet) was 7%, the “Hyperhidrosis, related TEAE, subjects” value ([3]; 20 mg oral tablet) was 7% and the “Dizziness, related TEAE, subjects” value ([3]; 100 mg oral tablet) was 13%. For the same molecule, the “Euphoric mood, related TEAE, subjects” value ([3]; 100 mg oral tablet) was 13%, the “Feeling abnormal, related TEAE, subjects” value ([3]; 100 mg oral tablet) was 20% and the “Headache, related TEAE, subjects” value ([3]; 100 mg oral tablet) was 13%. The “Hyperhidrosis, related TEAE, subjects” value ([3]; 100 mg oral tablet) was 7%, the “Hypokinesia, related TEAE, subjects” value ([3]; 100 mg oral tablet) was 13% and the “Inappropriate affect” value ([3]; 100 mg oral tablet) was 7%. For the same molecule, the “Nausea, related TEAE, subjects” value ([3]; 100 mg oral tablet) was 20%, the “AE leading to withdrawal from the study” value ([3]; one subject (Subject 11) of 16, after first treatment period) was “mild hyperbilirubinemia” and the “antidepressant-like effect of continuous 7-day treatment vs single acute dose at the same dose levels” value (male Sprague Dawley rats) was “stronger antidepressant-like effect”.
